# Test results taken from patent US20080319175A1, “Transthyretin Stabilization” (The Scripps Research Institute, priority 2004, published 2008).
# How the values were obtained:
# [1] = precipitation of small molecule under acid-mediated amyloidogenic conditions in the absence of TTR; format: physicochemical; settings: 3.6 μM, pH 4.4, 37° C., 72 h
# Description: TTR amyloid inhibition efficacy was probed using a stagnant fibril formation assay described previously, wherein partial denaturation was triggered by acidification (pH 4.4, 37° C.) (Colon, W.; Kelly, J. W. Biochemistry 1992, 31, 8654-8660). Briefly, a test compound (7.2 or 3.6 μM) is incubated with TTR (3.6 μM) for 30 min in pH 7 buffer. Amyloidogenesis is then initiated by lowering to pH 4.4, where maximal fibril formation is observed with WT-TTR after 72 h (37° C.). The turbidity in the presence of a potential inhibitor (Ttest) is compared to that of a solution lacking a test compound (Tcontrol). […] From experience we know that excellent inhibitors allow <10% fibril formation at a small molecule concentration of 7.2 μM and <40% fibril formation at a concentration equal to that of WT-TTR (3.6 μM) (Hammarstrom, P.; et al. Science 2003, 299, 713-716; Klabunde, T.; et al. Nature Struct. Biol. 2000, 7, 312-321; Razavi, H.; et al. Angew Chem 2003, 42, 2758-2761; Miroy, G. J.; et al. Proc. Natl. Acad. Sci. USA 1996, 93, 15051-15056; Peterson, S. A.; et al. Proc. Natl. Acad. Sci. USA 1998, 95, 12956-12960; Baures, P. W.; et al. Bioorg. Med. Chem. 1998, 6, 1389-1401; Baures, P. W.; et al. Bioorg. Med. Chem. 1999, 7, 1339-1347; Petrassi, H. M.; et al. J. Am. Chem. Soc. 2000, 122, 2178-2192; McCammon, M. G.; et al. Structure 2002, 10, 851-863; Oza, V. B.; et al. J. Med. Chem. 2002, 45, 321-332; Sacchettini, J. C.; et al. Nature Rev. Drug Disc. 2002, 1, 267-275; Green, N. S.; et al. J. Am. Chem. Soc. 2003, 125, 13404-13414; Adamski-Werner, S. L.; et al. J. Med. Chem. 2004, 47, 355-374; Miller Sean, R.; et al. Lab. Inv. 2004, 84, 545-552). […] Therefore, when both the ligand and TTR are at equal concentrations, a population of TTR•I, TTR•I2 and unliganded TTR is observed, dictated by the dissociation constants. It is now established by other studies that inhibitor occupancy of only one of the two TTR binding sites is sufficient to stabilize the entire tetramer against amyloidogenesis (Wiseman, R. L.; et al. J. Am. Chem. Soc. 2005, in press). This is further supported by the observation herein that twenty-six of these dibenzofurans are excellent TTR amyloidogenesis inhibitors (<40% fibril formation) at a concentration equal to that of TTR (3.6 μM each, FIG. 3).
# WT-TTR [2] = target: T1, WT-TTR (Homo sapiens, UniProt P02766); test: time course analysis of WT-TTR tetramer dissociation in urea (far-UV CD); format: biochemical; settings: for rate of TTR tetramer dissociation monitored by far-UV CD: 6M urea, TTR 3.6 μM, inhibitor 7.2 and 3.6 μM; for rank in tetramer dissociation time course at the end of the plot: after 169 hours, 6.0 M urea, WT-TTR 3.6 μM
# T1 construct: made in house
# Source text: (§1) The ability of these inhibitors to impose kinetic stability on tetrameric TTR is best evaluated by assessing the rate of TTR tetramer dissociation (Hammarstrom, P.; et al. Science 2003, 299, 713-716; Hammarstrom, P.; et al. Proc. Natl. Acad. Sci. USA 2002, 99, 16427-16432). Under acidic conditions tetramer dissociation leads to amyloidogenesis, whereas in the presence of chaotropes (6M urea), tetramer dissociation leads to monomer unfolding. The influence of inhibitors 25, 47 and 64, representing the three structural classes of dibenzofuran-based inhibitors, on the rates of tetramer dissociation under acid- and urea-mediated denaturing conditions was probed. […] The rate of TTR tetramer dissociation in 6M urea is easily monitored by linking the slow quaternary structural changes to rapid tertiary structural changes that are easily monitored by spectroscopic methods (Hammarstrom, P.; et al. Proc. Natl. Acad. Sci. USA 2002, 99, 16427-16432).
# Time course analysis of WT-TTR tetramer dissociation inhibition by compounds 25, 47, and 64 evaluated by linked-monomer unfolding in urea. Compounds 25, 47, and 64 were dissolved in DMSO to provide 10 mM primary stock solutions, from which 10-fold EtOH dilutions yielded 1 mM secondary stock solutions. 200 μL of 1.0 mg/mL (18 μM) WT-TTR solution (50 mM sodium phosphate, 100 mM KCl, and 1 mM EDTA, pH 7.2), and either 7.2 or 3.6 μL (2× and 1×, respectively) of 1 mM inhibitor secondary stock solutions were added to 2 mL eppendorf tubes, vortexed briefly, and incubated for 15 min at 25° C. 100 μL of the TTR•inhibitor solutions were added to 900 μL of urea buffer (6.67 M urea, 50 mM sodium phosphate, 100 mM KCl, 1 mM EDTA, pH 7.2), and the final 1 mL solutions were vortexed again and incubated in the dark at 25° C. without agitation. At 0, 4, 11, 24, 49, 73, 97, 122, 146, and 170 h time points after mixing with urea, the circular dichroism spectra were measured between […], with scanning every 0.5 nm and averaging for 5 s. After measurements were taken, samples were returned to their respective eppendorf tubes and incubation was continued. Control samples containing 7.2 μL of 10% DMSO in EtOH were prepared and analyzed as above for comparison. The CD amplitude values were averaged between 215 and 218 nm to determine the extent of β-sheet loss throughout the experiment. TTR tetramer dissociation is linked to the rapid (˜500,000× faster) monomer denaturation as measured through this β-sheet loss (Hammarstrom, P.; et al. Proc. Natl. Acad. Sci. USA 2002, 99, 16427-16432).
# FIG. 11 is a plot of the timecourse analysis of WT-TTR (3.6 μM) tetramer dissociation (6.0 M urea) in the absence (▴) and presence of 7.2 μM (⋄) and 3.6 μM (∘) concentrations of inhibitors 25, 47, and 64 (see color scheme within Figure to differentiate inhibitors). Slow tetramer dissociation is not detectable by far-UV CD spectroscopy, but this process is linked to rapid (˜500,000× faster) monomer denaturation as monitored by loss of β-sheet content easily followed by circular dichroism spectroscopy. It is hard to discern which compound is most efficacious in the black and white plot.
# WT-TTR [3] = target: T1, WT-TTR; test: time course analysis of WT-TTR fibril formation inhibition (turbidity at 500 nm); format: biochemical; settings: WT-TTR 3.6 μM; for TTR amyloidogenesis mediated by partial acidification relative to control: inhibitor 7.2 and 3.6 μM, pH 4.4
# Source text: as §1
# Time course analysis of WT-TTR fibril formation inhibition by compounds 25, 47, and 64. Compounds 25, 47, and 64 were dissolved in DMSO to provide 7.2 mM primary stock solutions (10× stocks), from which 5- and 10-fold DMSO dilutions yielded 1.44 mM (2×) and 0.72 mM (1×) secondary stock solutions, respectively. 495 μL of 0.4 mg/mL (7.2 μM) WT-TTR solution (10 mM sodium phosphate, 100 mM KCl, and 1 mM EDTA, pH 7.2), and 5 μL of either the 1.44 or 0.72 mM inhibitor secondary stock solutions were added to disposable UV cuvettes, vortexed briefly, then incubated for 30 min at 25° C. The pH was then adjusted to 4.4 with addition of 500 μL of acidic buffer (100 mM acetate, 100 mM KCl, 1 mM EDTA, pH 4.2), and the final 1 mL solutions were vortexed again and incubated in the dark at 37° C. without agitation. At 0, 4, 8, 12, 25, 49, 74, 100, 122, 145, and 169 h time points after acidification, the solutions were vortexed and the turbidity at 500 nm was measured. Control samples containing 5 μL of pure DMSO were prepared and analyzed as above for comparison. Small molecule and TTR control samples were prepared in groups of 10 to prevent disturbance of the cuvettes during incubation. Samples were discarded after their turbidities were measured.
# FIG. 10 is a plot of the timecourse analysis of WT-TTR (3.6 μM) fibril formation mediated by partial acid denaturation in the absence (▴) and presence of 7.2 μM (⋄) and 3.6 μM (∘) inhibitors 25, 47, and 64, as measured by turbidity at 500 nm (see color scheme within Figure to differentiate inhibitors). It is hard to discern which compound is most efficacious in the black and white plot.
Compound,precipitation of compound in the absence of TTR [1],rate of TTR tetramer dissociation monitored by far-UV CD (WT-TTR [2]),rank in tetramer dissociation time course at the end of the plot (WT-TTR [2]),TTR amyloidogenesis mediated by partial acidification relative to control (WT-TTR [3]),"rank by fibrils formed at the end of the time course (WT-TTR [3]; after 169 hours, partial acid denaturation)"
O=C(O)c1cccc2c1oc1c(C(=O)O)ccc(Nc3ccccc3C(F)(F)F)c12 [Compound 25],no measurable precipitation,markedly slowed in a dose-dependent fashion,most effective in dissociating tetramers,dramatically slowed in a dose-dependent fashion,
O=C(O)c1cccc2c1oc1c(C(=O)O)ccc(Oc3cc(Cl)cc(Cl)c3)c12 [Compound 47],no measurable precipitation,markedly slowed in a dose-dependent fashion,,dramatically slowed in a dose-dependent fashion,shows the most fibrils formed
O=C(O)c1cccc2c1oc1c(C(=O)O)ccc(-c3cc(C(F)(F)F)cc(C(F)(F)F)c3)c12 [Compound 64],,markedly slowed in a dose-dependent fashion,followed by compound 64,dramatically slowed in a dose-dependent fashion,
